In patent US8614201B2 (Janssen Pharmaceutica NV, priority 2009, dated 2013) one finds IC50 data, which are given here for 20 compounds.

This test deals with Human TRPA1 (Homo sapiens, UniProt O75762). Kind of test: Assay 1: In vitro cellular testing of TRPA1 modulation (CHO-TREx, Fluo-3 calcium fluorescence, AITC agonist). The test is classed as cell-based. More on the design: expressed in transfected cells; host or cells: CHO-TREx cells (Invitrogen), vector pcDNA4/TO. Particulars: CHO-TREx cells expressing human TRPA1; Fluo-3 fluorescence (FLIPR/Tetra); agonist 15 μM allyl isothiocyanate (AITC); 30 minute antagonist incubation. How it is done: Assay 1: In Vitro Cellular Testing of TRPA1 Modulation
Sequence of Human TRPA1 (O75762 whole entry): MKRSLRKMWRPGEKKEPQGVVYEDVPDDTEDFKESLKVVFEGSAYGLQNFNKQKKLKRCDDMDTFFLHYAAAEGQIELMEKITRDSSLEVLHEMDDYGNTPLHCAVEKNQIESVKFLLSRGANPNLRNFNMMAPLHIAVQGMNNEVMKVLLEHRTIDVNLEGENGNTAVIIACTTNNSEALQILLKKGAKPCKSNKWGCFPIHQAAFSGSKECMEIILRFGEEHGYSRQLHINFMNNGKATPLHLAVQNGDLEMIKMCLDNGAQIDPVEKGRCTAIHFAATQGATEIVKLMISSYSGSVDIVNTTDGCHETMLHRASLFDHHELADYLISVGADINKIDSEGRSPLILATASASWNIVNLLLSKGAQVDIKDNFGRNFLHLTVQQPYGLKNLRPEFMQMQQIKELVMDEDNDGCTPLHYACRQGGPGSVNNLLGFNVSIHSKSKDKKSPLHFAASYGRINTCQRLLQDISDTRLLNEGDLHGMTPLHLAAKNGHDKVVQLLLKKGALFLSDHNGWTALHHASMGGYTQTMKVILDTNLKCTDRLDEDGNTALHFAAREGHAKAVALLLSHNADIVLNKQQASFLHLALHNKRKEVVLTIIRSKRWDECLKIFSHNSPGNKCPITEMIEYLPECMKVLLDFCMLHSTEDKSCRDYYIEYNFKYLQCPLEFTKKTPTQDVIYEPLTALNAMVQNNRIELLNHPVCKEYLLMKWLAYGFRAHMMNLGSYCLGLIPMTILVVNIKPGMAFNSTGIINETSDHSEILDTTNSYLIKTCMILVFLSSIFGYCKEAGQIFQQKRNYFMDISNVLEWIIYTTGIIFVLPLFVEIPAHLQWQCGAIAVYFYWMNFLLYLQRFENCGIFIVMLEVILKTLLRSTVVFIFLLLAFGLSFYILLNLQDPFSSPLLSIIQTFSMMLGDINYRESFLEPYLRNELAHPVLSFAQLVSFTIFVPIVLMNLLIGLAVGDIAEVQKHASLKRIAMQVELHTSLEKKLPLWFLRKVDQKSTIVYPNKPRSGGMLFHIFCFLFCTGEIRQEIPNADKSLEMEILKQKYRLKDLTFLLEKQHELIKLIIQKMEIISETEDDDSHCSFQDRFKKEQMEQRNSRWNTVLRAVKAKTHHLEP
Human TRPA1 (NCBI accession number NM_007332.1) was cloned into pcDNA4/TO. CHO-TREx cells (Invitrogen, Carlsbad, Calif.) were stably transfected with pcDNA4/TO-TRPA1 using lipofection to generate a clonal cell line that expressed human TRPA1 in a tetracycline-inducible manner. Culture medium used was Ham's F-12 supplemented with 10% fetal bovine serum, 2 mM L-glutamine, 5 μg/ml blasticidin and 200 μg/ml zeocin. Cells were seeded in black-walled clear-bottom 96-well plates at a density of 50,000 cells per well and cultured overnight at 37° C. with 5% CO2 in culture medium supplemented with 1 μg/ml tetracycline. On the day of the experiment, cells were washed 3 times with HEPES buffered saline (in mM: NaCl 137, MgCl2 0.5, KCl 2, dextrose 5, CaCl2 2 and HEPES 10; pH 7.4). Cells were then loaded with calcium-sensitive fluorescent dye by incubation in the presence of 4 μM Fluo-3 AM (TefLabs, Austin, Tex.) at room temperature in the dark for 60 minutes. After incubation with dye, cells were washed in assay buffer and, if appropriate, antagonists were added at this time. Following a further 30 minute incubation, cells were assayed using a Fluorometric Imaging Plate Reader (FLIPR™) or a Tetra (both manufactured by Molecular Devices, CA) to simultaneously monitor Fluo-3 fluorescence in all wells (λexcitation=488 nm, λemission=540 nm). Changes in fluorescence were monitored for 3 minutes after the addition of 15 μM allyl isothiocyanate (AITC) as an agonist. Concentration-dependence of receptor blocking was determined by exposing each well of cells in duplicate rows of a 96-well plate to a serial dilution of test compound. The concentration series usually started at 10 μM with a three-fold serial decrement in concentration. The magnitude of the response to agonist challenge was determined by measuring the fluorescence before and 3 minutes after the addition of the agonist. The degree of blocking was determined by comparing the response to that of negative (no added antagonist) and positive (10 μM ruthenium red) control wells. Data were analyzed using a non-linear regression program (Origin; OriginLab, MA) to fit the concentration-response data to a Hill function. Antagonist potencies were determined as the concentration required to produce 50% reduction in the response as compared to the negative and positive controls.

The structures appear in SMILES notation. pIC50: −log10 of the molar value.

The term pIC50 denotes the IC50 on a negative log10 scale, so that one unit is a factor of ten. On to `CN1CCC(CN2CCN(c3nc(CNC(=O)[C@@H]4CCCN4S(=O)(=O)c4ccc(F)cc4)cc(-c4ccc(C(F)(F)F)cc4)n3)CC2)CC1` [Example 20, 1-(4-Fluoro-benzenesulfonyl)-pyrrolidine-2S-carboxylic acid [2-[4-(1-methyl-piperidin-4-ylmethyl)-piperazin-1-yl]-6-(4-trifluoromethyl-phenyl)-pyrimidin-4-ylmethyl]-amide], for which the pIC50 is 5.69.
For the compound `O=C(NCc1cc(-c2ccc(C(F)(F)F)cc2)nc(N2CCN(Cc3ccncc3)CC2)n1)[C@@H]1CCCN1S(=O)(=O)c1ccc(F)cc1` [Example 21, 1-(4-Fluoro-benzenesulfonyl)-pyrrolidine-2S-carboxylic acid [2-(4-pyridin-4-ylmethyl-piperazin-1-yl)-6-(4-trifluoromethyl-phenyl)-pyrimidin-4-ylmethyl]-amide], the pIC50 was 7.62.
Turning to `O=C(NCc1cc(-c2ccc(C(F)(F)F)cc2)nc(N2CCN(Cc3ccccn3)CC2)n1)[C@@H]1CCCN1S(=O)(=O)c1ccc(F)cc1` [Example 22, 1-(4-Fluoro-benzenesulfonyl)-pyrrolidine-2S-carboxylic acid [2-(4-pyridin-2-ylmethyl-piperazin-1-yl)-6-(4-trifluoromethyl-phenyl)-pyrimidin-4-ylmethyl]-amide], the pIC50 was 6.89.
Regarding `O=C(NCc1cc(-c2ccc(C(F)(F)F)cc2)nc(N2CCNCC2)n1)[C@@H]1CCCN1S(=O)(=O)c1ccc(F)cc1` [Example 23, 1-(4-Fluoro-benzenesulfonyl)-pyrrolidine-2S-carboxylic acid [2-piperazin-1-yl-6-(4-trifluoromethyl-phenyl)-pyrimidin-4-ylmethyl]-amide], the pIC50 was 5.35.
As for `CC(C)CN1CCN(c2nc(CNC(=O)[C@@H]3CCCN3S(=O)(=O)c3ccc(Cl)s3)cc(-c3ccc(C(F)(F)F)cc3)n2)CC1` [Example 24, 1-(5-Chloro-thiophene-2-sulfonyl)-pyrrolidine-2S-carboxylic acid [2-(4-isobutyl-piperazin-1-yl)-6-(4-trifluoromethyl-phenyl)-pyrimidin-4-ylmethyl]-amide], the pIC50 is 7.62.
Next, `CC1CCCN1c1nc(CNC(=O)[C@@H]2CCCN2S(=O)(=O)c2ccc(F)cc2)cc(-c2ccc(C(F)(F)F)cc2)n1` (stereo partly drawn) [Example 25, 1-(4-Fluoro-benzenesulfonyl)-pyrrolidine-2S-carboxylic acid [2-(2-methyl-pyrrolidin-1-yl)-6-(4-trifluoromethyl-phenyl)-pyrimidin-4-ylmethyl]-amide]: 7.20.
Next, `C[C@H]1CCCN1c1nc(CNC(=O)[C@@H]2CCCN2S(=O)(=O)c2ccc(F)cc2)cc(-c2ccc(C(F)(F)F)cc2)n1` [Example 26, 1-(4-Fluoro-benzenesulfonyl)-pyrrolidine-2S-carboxylic acid [2-(2S-methyl-pyrrolidin-1-yl)-6-(4-trifluoromethyl-phenyl)-pyrimidin-4-ylmethyl]-amide]: 7.89; `C[C@@H]1CCCN1c1nc(CNC(=O)[C@@H]2CCCN2S(=O)(=O)c2ccc(F)cc2)cc(-c2ccc(C(F)(F)F)cc2)n1` [Example 27, 1-(4-Fluoro-benzenesulfonyl)-pyrrolidine-2S-carboxylic acid [2-(2R-methyl-pyrrolidin-1-yl)-6-(4-trifluoromethyl-phenyl)-pyrimidin-4-ylmethyl]-amide]: 7.80; `CNc1nc(CNC(=O)[C@@H]2CCCN2S(=O)(=O)c2ccc(Cl)s2)cc(-c2ccc(C(F)(F)F)cc2)n1` [Example 28, 1-(5-Chloro-thiophene-2-sulfonyl)-pyrrolidine-2S-carboxylic acid [2-methylamino-6-(4-trifluoromethyl-phenyl)-pyrimidin-4-ylmethyl]-amide]: 7.09.
On to `CN(C)c1nc(CNC(=O)[C@@H]2CCCN2S(=O)(=O)c2ccc(Cl)s2)cc(-c2ccc(C(F)(F)F)cc2)n1` [Example 29, 1-(5-Chloro-thiophene-2-sulfonyl)-pyrrolidine-2S-carboxylic acid [2-dimethylamino-6-(4-trifluoromethyl-phenyl)-pyrimidin-4-ylmethyl]-amide], for which the pIC50 was 7.92.
As for `C[C@@H]1CCCN1c1nc(CNC(=O)[C@@H]2CCCN2S(=O)(=O)c2ccc(Cl)s2)cc(-c2ccc(C(F)(F)F)cc2)n1` [Example 30, 1-(5-Chloro-thiophene-2-sulfonyl)-pyrrolidine-2(S)-carboxylic acid [2-(2R-methyl-pyrrolidin-1-yl)-6-(4-trifluoromethyl-phenyl)-pyrimidin-4-ylmethyl]-amide], the negative-log IC50 (pIC50) is 7.89.
The same measure for `C[C@H]1CCCN1c1nc(CNC(=O)[C@@H]2CCCN2S(=O)(=O)c2ccc(Cl)s2)cc(-c2ccc(C(F)(F)F)cc2)n1` [Example 31, 1-(5-Chloro-thiophene-2-sulfonyl)-pyrrolidine-2S-carboxylic acid [2-(2S-methyl-pyrrolidin-1-yl)-6-(4-trifluoromethyl-phenyl)-pyrimidin-4-ylmethyl]-amide]: 8.05.
In the case of `CN(C)[C@@H]1CCN(c2nc(CNC(=O)[C@@H]3CCCN3S(=O)(=O)c3ccc(Cl)s3)cc(-c3ccc(C(F)(F)F)cc3)n2)C1` [Example 32, 1-(5-Chloro-thiophene-2-sulfonyl)-pyrrolidine-2S-carboxylic acid [2-(3R-dimethylamino-pyrrolidin-1-yl)-6-(4-trifluoromethyl-phenyl)-pyrimidin-4-ylmethyl]-amide], the pIC50 was 5.99.
Take `CN(C)[C@H]1CCN(c2nc(CNC(=O)[C@@H]3CCCN3S(=O)(=O)c3ccc(Cl)s3)cc(-c3ccc(C(F)(F)F)cc3)n2)C1` [Example 33, 1-(5-Chloro-thiophene-2-sulfonyl)-pyrrolidine-2S-carboxylic acid [2-(3S-dimethylamino-pyrrolidin-1-yl)-6-(4-trifluoromethyl-phenyl)-pyrimidin-4-ylmethyl]-amide]: the pIC50 is 6.33.
As to `CC(C)(C)OC(=O)N[C@H]1CCN(c2nc(CNC(=O)[C@@H]3CCCN3S(=O)(=O)c3ccc(Cl)s3)cc(-c3ccc(C(F)(F)F)cc3)n2)C1` [Example 34, {1-[4-({[1-(5-Chloro-thiophene-2-sulfonyl)-pyrrolidine-2S-carbonyl]-amino}-methyl)-6-(4-trifluoromethyl-phenyl)-pyrimidin-2-yl]-pyrrolidin-3S-yl}-carbamic acid tert-butyl ester], the pIC50 was 7.49.
The same measure for `CC(C)(C)OC(=O)N[C@@H]1CCN(c2nc(CNC(=O)[C@@H]3CCCN3S(=O)(=O)c3ccc(Cl)s3)cc(-c3ccc(C(F)(F)F)cc3)n2)C1` [Example 35, {1-[4-({[1-(5-Chloro-thiophene-2-sulfonyl)-pyrrolidine-2S-carbonyl]-amino}-methyl)-6-(4-trifluoromethyl-phenyl)-pyrimidin-2-yl]-pyrrolidin-3R-yl}-carbamic acid tert-butyl ester]: 7.08; for `C[C@H](Nc1nc(CNC(=O)[C@@H]2CCCN2S(=O)(=O)c2ccc(Cl)s2)cc(-c2ccc(C(F)(F)F)cc2)n1)c1ccccn1` [Example 36, 1-(5-Chloro-thiophene-2-sulfonyl)-pyrrolidine-2S-carboxylic acid [2-(1-pyridin-2-yl-ethylamino)-6-(4-trifluoromethyl-phenyl)-pyrimidin-4S-ylmethyl]-amide]: 7.41.
Regarding `C[C@@H](Nc1nc(CNC(=O)[C@@H]2CCCN2S(=O)(=O)c2ccc(Cl)s2)cc(-c2ccc(C(F)(F)F)cc2)n1)c1ccccn1` [Example 37, 1-(5-Chloro-thiophene-2-sulfonyl)-pyrrolidine-2S-carboxylic acid [2-(1-pyridin-2-yl-ethylamino)-6-(4-trifluoromethyl-phenyl)-pyrimidin-4R-ylmethyl]-amide], the pIC50 is 8.15.
`CN(C(=O)OC(C)(C)C)C1CCN(c2nc(CNC(=O)[C@@H]3CCCN3S(=O)(=O)c3ccc(Cl)s3)cc(-c3ccc(C(F)(F)F)cc3)n2)C1` (stereo partly drawn) [Example 38, {1-[4-({[1-(5-Chloro-thiophene-2-sulfonyl)-pyrrolidine-2S-carbonyl]-amino}-methyl)-6-(4-trifluoromethyl-phenyl)-pyrimidin-2-yl]-pyrrolidin-3-yl}-methyl-carbamic acid tert-butyl ester]: the pIC50 was 8.22.
Next, `N[C@H]1CCN(c2nc(CNC(=O)[C@@H]3CCCN3S(=O)(=O)c3ccc(Cl)s3)cc(-c3ccc(C(F)(F)F)cc3)n2)C1` [Example 39, 1-(5-Chloro-thiophene-2-sulfonyl)-pyrrolidine-2S-carboxylic acid [2-(3S-amino-pyrrolidin-1-yl)-6-(4-trifluoromethyl-phenyl)-pyrimidin-4-ylmethyl]-amide]: 5.90.
